Measured values published in patent publication US20050064485A1, “Multiplex binding and activity assays” (priority 2003, published 2005).

Experiments:
[1] = Precipitation of poorly correlating compounds in the EGFR kinase assay; type: physicochemical; details: EGFR kinase assay conditions
[2] = target: PTK labeled tracer F-ADE(pY)LIPQQS; experiment: FP direct binding, antibody titrated (10 nM to 9.8 pM) against 1 nM tracer
[3] = target: T1, Epidermal Growth Factor Receptor (EGFR) Tyrosine Kinase (Homo sapiens, UniProt P00533); experiment: EGFR kinase multiplex FP/TR-RET library screen and follow-up titration; type: biochemical; details: two-fold dilution series
T1 construct: purchased PanVera, Madison Wis; P2628
T1 sequence (P00533 25-1210, species assumed): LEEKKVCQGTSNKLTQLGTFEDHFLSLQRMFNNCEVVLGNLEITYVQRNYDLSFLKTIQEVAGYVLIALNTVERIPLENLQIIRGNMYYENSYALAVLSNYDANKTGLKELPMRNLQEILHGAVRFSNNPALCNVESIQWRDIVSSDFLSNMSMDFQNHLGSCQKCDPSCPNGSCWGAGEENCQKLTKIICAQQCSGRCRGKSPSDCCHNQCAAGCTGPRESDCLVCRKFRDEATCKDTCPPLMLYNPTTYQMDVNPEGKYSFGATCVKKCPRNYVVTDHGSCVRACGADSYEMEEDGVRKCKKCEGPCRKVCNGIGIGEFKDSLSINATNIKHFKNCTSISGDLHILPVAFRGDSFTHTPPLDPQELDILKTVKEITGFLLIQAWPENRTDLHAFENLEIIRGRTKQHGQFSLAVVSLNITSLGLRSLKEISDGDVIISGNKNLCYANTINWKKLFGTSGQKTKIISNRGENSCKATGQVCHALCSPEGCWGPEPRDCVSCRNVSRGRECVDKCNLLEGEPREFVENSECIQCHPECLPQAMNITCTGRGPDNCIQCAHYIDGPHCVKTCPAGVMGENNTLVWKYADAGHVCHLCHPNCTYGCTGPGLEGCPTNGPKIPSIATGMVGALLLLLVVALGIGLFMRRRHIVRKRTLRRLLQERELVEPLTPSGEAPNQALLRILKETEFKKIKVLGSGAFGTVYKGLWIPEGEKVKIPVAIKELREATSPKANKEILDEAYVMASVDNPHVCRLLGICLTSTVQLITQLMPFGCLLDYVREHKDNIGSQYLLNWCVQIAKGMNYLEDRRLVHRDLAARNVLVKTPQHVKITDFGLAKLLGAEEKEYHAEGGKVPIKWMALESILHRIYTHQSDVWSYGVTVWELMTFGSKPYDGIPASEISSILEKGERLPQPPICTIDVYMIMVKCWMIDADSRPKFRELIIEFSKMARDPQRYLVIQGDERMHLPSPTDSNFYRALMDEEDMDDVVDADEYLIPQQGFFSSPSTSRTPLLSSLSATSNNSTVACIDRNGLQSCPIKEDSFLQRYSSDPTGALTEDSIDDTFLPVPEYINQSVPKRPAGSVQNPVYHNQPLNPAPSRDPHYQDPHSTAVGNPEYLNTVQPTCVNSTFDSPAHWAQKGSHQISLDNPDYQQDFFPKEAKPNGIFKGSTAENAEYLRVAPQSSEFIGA

Row | Compound | precipitation in assay [1] | inhibitor on re-assay [3] | other results
1 | O=C1Nc2ccc(I)cc2/C1=C/c1cc(Br)c(O)c(Br)c1 [GW5074] | precipitate |  | 
2 | Tb-chelate labeled PY72 (anti-phosphotyrosine) IgG antibody |  |  | EC50 [2]: 1 nM
3 | Oc1ccccc1O [Pyrocatechol] |  | neither was seen to be an inhibitor | 
4 | NC(=O)c1cc(N2CC2)c([N+](=O)[O-])cc1[N+](=O)[O-] [CB-1954, CB 1954] |  | neither was seen to be an inhibitor | 
5 | CC(C)[C@@]1(NC(=O)[C@@H]2C=C3c4cccc5[nH]cc(c45)C[C@H]3N(C)C2)O[C@@]2(O)[C@@H]3CCCN3C(=O)[C@H](Cc3ccccc3)N2C1=O [Ergocristine] | precipitate |  | 
